“Also recorded” adds a separate entry of the source.
Tests used:
[1] = Acute toxicity, intravenous administration, mice; conditions: both sexes, mouse, in vivo, Mice (M/F)
[2] = Immunotoxicity study, long-term topical application; assay type: in vivo
Text: Conclusion: PDSTP compound has no effect on humoral immunity and functional activity of macrophages when applied topically for 30 days in doses up to 100 TD.

[3] = tested on: SARS-CoV-2 clinical isolate 35245; test: Microtetrazolium (MTT) test, SARS-CoV-2 35245; assay type: cell-based; conditions: Severe acute respiratory syndrome coronavirus 2, read-out: Antiviral activity IC50 against coronaviruses, SARS-CoV-2 clinical isolate 35245, MTT
Procedure: The compound’s activity against OC43 and SARS-CoV-235245 was based on the inhibition of virus-induced cytopathogenicity in acutely infected Vero-76 cells (MOI 0.01). Briefly, Vero-76 cells were seeded in 96-well plates at a density of 3 × 10^4 cells/well and incubated in a growth medium in a 5% CO2 at 37°C overnight. Cell monolayers were then infected with 50 μL of the appropriate viral dilution in maintenance medium [D-MEM and MEM-Earl (Gibco, Thermo Fisher Scientific, MA United States) with L-glutamine (Gibco), 1 mM sodium pyruvate (Gibco), and 0.025 g/L kanamycin (Gibco), supplemented with 0.5% inactivated FBS (Harlan Sera-Lab, Loughborough, United Kingdom), respectively] to give an MOI of 0.01, without or with serial dilutions of test samples. After 6 (HCoV-OC43) and 4/5 (SARS-CoV-2) days of incubation at 37°C, the extent of cell viability was quantified using a tetrazolium-based colorimetric method, in which the reduction of 3-(4,5-dimethylthiazol-2-yl)-2,5-diphenyl-tetrazolium bromide (MTT) by mitochondrial dehydrogenases to a soluble colored formazan was measured using a spectrophotometer (Infinity 200, Tecan Austria GmbH, Austria) at 570 nm, as previously reported ([Sanna et al., 2020]).

[4] = Chronic toxicity, intranasal administration, rabbits; assay type: in vivo; conditions: repeated administration for 14 days, 10-200 mg/kg
[5] = Allergenicity study, guinea pigs; assay type: in vivo; conditions: intradermal sensitizing dose 40 µg into the ear; epicutaneous and conjunctival testing
[6] = tested on: SARS-CoV-2 clinical isolate VR PV10734; test: Plaque reduction assay, SARS-CoV-2 VR PV10734 in Vero E6 cells; assay type: cell-based; conditions: Severe acute respiratory syndrome coronavirus 2, Vero C1008, mean ± SD, read-out: Antiviral activity IC50 against coronaviruses, SARS-CoV-2 clinical isolate VR PV10734, PR
Procedure: Vero E6 cells were incubated in the presence of PDSTP and reference compounds (100.0, 20.0, 4.0, and 0.8 μM concentrations) for 1 h at 37°C in a 5% CO2 and then infected for 1 h with 250 μL of the corresponding virus (SARS-CoV-2 PV10734 or HCoV-229E) dilutions to obtain 50–100 PFU/well. The plates were then incubated for 1 h at 37°C in a 5% CO2 atmosphere. Following the removal of the unabsorbed virus, 400 μL of the medium (D-MEM with L-glutamine, 4,500 mg/L D-glucose, and 1% inactivated FBS) containing 0.75% methyl-cellulose (M0512, viscosity 4,000 cP, Sigma-Aldrich, United States) and the serial dilutions of the compounds were added and incubated for 4 (SARS-CoV-2) or 2 (HCoV-229E) days at 37°C in a 5% CO2 atmosphere. Subsequently, the cells were fixed and stained with a 0.2% crystal violet solution (V5265, Sigma-Aldrich, United States) and then the number of plaques was calculated. The degree of cell growth/viability and viral multiplication at each drug concentration tested was expressed as a percentage of the untreated control. Concentrations resulting in 50% inhibition (CC50 or EC50) were determined using linear regression analysis.

[7] = tested on: SARS-COV-2 PV10734; test: Penetration assay in Vero cells; assay type: cell-based; conditions: at higher concentrations
Procedure: A penetration assay was performed with small modifications according to the method reported earlier ([Chang et al., 2012]). A 24-well tissue culture plate was seeded with Vero cells (3 × 10^5 cells/well), which were then incubated overnight at 37°C in a 5% CO2 atmosphere. The cells were pre-chilled on ice for 1 h, and the medium was removed. The cells were infected with 100 PFU of SARS-CoV-2 PV10734 on ice for 2 h. The medium containing the unbound virus was then removed. Various concentrations of PDSTP (100–0.8 μM) in the medium were added, and the cells were incubated at 37°C for 1 h to trigger endocytosis of the virus. The infected cells were then treated with alkaline PBS (pH 11) for 1 min to inactivate viruses that had not penetrated the cells. Acidic PBS (pH 3) was then added to neutralize the mixture. The neutralized medium was removed; the cells were overlaid with methylcellulose in media and then were incubated at 37°C. After the 72-h incubation period, the cells were stained, and the plaques were determined by counting.

[8] = Acute toxicity, intravenous administration, rats; conditions: both sexes, rat, in vivo, Rats (M/F)
[9] = tested on: SARS-COV-2 PV10734; test: Virucidal activity assay; conditions: 20 µM; 4°C and 37°C for 2 hours
Procedure: PDSTP (20 µM) was incubated with 3×10^5 PFU/mL of SARS-COV-2 PV10734 at either 4 and 37 °C for 2 hours. The mixture of the viral sample without a test compound was used as an untreated control. At the end of the incubation period, samples were serially diluted in media and titers were determined on Vero-76 cells at high dilutions, at which the compound was not active. Virus titers were determined by plaque assay in Vero-76 cells.

[10] = Cytotoxicity (MTT test) in Vero-76 cells; assay type: cell-based, African Green Monkey (Cercopithecus aethiops); conditions: African green monkey
Procedure: The microtetrazolium test (MTT test) was used to study the cytotoxicity of the compounds. Vero cells were seeded in 96-well plates at an initial density of 3×10^5 cells/mL, in Gibco Dulbecco’s Modified Eagle Medium supplemented with L-glutamine and 25 mg/L kanamycin, and 10 % fetal bovine serum (FBS) (DMEM, Thermo Fisher Scientific, Waltham, MA USA). Cell cultures were then incubated at 37 °C in a 5 % CO2 atmosphere, in the absence or presence of serial dilutions of test compounds. The test medium used for the cytotoxic assay as well as for the antiviral assay contained 1 % of the appropriate serum. Cell viability was determined after 72 h at 37 °C by the MTT method as previously reported. The cell viability was expressed as a percentage of the control. The 50% cytotoxic concentration (CC50) of each compound was defined as the concentration of the compound that reduced the absorbance (OD570) of the treated cells to 50% when compared with that of untreated cells. CC50 mean values were calculated from at least three independent experiments.

Compound: Cc1nc(N2CC[N+]3(CC2)CC[N+]2(CCNCC2)CC3)c([N+](=O)[O-])c(N2CC[N+]3(CC2)CC[N+]2(CCNCC2)CC3)n1.Cl.Cl.O.O.O.O.O.O.O.O.O.[Cl-].[Cl-].[Cl-].[Cl-] [PDSTP, 3,3′-(2-methyl-5-nitropyrimidine-4,6-diyl)bis-3,12-diaza-6,9-diazonia-dispiro[5.2.5.2]hexadecane tetrachloride dihydrochloride nonahydrate]
- LD50 [1]: 150 mg/kg
- Effect on cellular immunity ([2]; long-term topical applications, immunosuppression only at maximum dose of 100 TD, reversible 14 days after withdrawal): tends to suppress cellular immunity
- Effect on humoral immunity and functional activity of macrophages ([2]; topically for 30 days in doses up to 100 TD): no effect
- IC50 [3]: 14.5 ± 3.3 µM
- Toxic effect on organs and systems [4]: toxic effect on organs and systems was not revealed
- Sensitizing properties [5]: no sensitizing properties
- IC50 [6]: 1.8 ± 0.3 µM
- Viral inhibition, penetration experiment [7]: only modest viral inhibition
- LD50 [8]: 140 mg/kg
- Virucidal activity (direct impact on viral infectivity) [9]: no direct impact; also recorded: lacks virucidal activity
- CC50 at 72 h [10]: > 100 µM

Source: publication PMC11931052, “Efficacy of dispirotripiperazine PDSTP in a golden Syrian hamster model of SARS-CoV-2 infection” (Frontiers in Microbiology, 2025)
